Assay results taken from patent US4837226A, “Polycyclic amine derivatives useful as cerebrovascular agents” (Warner-Lambert Company, priority 1988, dated 1989).

Assays:
[1] = tested on: cultured rat cortical neurons; assay: Inhibition of hypoxia induced [45Ca] influx (HCI) into cultured rat cortical neurons; format: cell-based; details: for IC50: Cortical neurone, cultured rat cortical neurons, 95% N2/5% CO2, 37° C., 4 hours; for inhibition of hypoxia induced calcium influx (in words): conclusion from Table IV
From the text: (§1) The ability of the compounds of the instant invention to inhibit the glutamate and hypoxia stimulated influx of calcium into cultured rat cortical neurons is shown in Table III and Table IV respectively. The methodology for determining the ability of the compounds of the instant invention to inhibit the glutamate stimulated calcium influx (GCI) into cultured rat cortical neurons is to be found in: A. W. Probert and F. W. Marcoux, Soc. Neurosci. Abstr., 13, Part II, 754, (1987). Using a similar culture system, the ability of the compounds of the instant invention to inhibit the hypoxia stimulated influx of calcium (HCI) was determined by incubating cultured cells in an atmosphere of nitrogen (95%) and CO2 (5%) at 37° C. for a period of 4 hours. Calcium influx was determined by subtraction of the stimulated influx in the presence of tetrodotoxin (3 μM) and magnesium (10 mM) from that found in the absence (control) and in the presence of the test substance.

[2] = molecular target: phencyclidene (PCP) receptors; assay: [3H]TCP receptor binding (RBS1), rat brain cortex membranes; details: for IC50: [3H]TCP, rat brain cortex membranes, read-out: Inhibition of [^3 H]TCP Receptor Binding, RBS1 IC50; for potency compared with TCP and MK-801 (in words): comparison from Table II; for inhibition of [^3 H]TCP receptor binding (in words): conclusion from Table II
Procedure: Tritiated TCP binding, designated RBS1, was carried out essentially as described in J. Pharmacol. Exp. Ther., 238, 739-748 (1986).

[3] = tested on: cultured rat cortical neurons; assay: Inhibition of glutamate stimulated [45Ca] influx (GCI) into cultured rat cortical neurons; format: cell-based; details: for IC50: Cortical neurone, cultured rat cortical neurons, glutamate stimulated; for inhibition of glutamate stimulated influx of calcium (in words): conclusion from Table III
From the text: as §1

For `NC12CCCCC1Cc1ccccc12` (centres unmarked) [Example 1, 1,2,3,4,9,9a-hexahydro-4aH-fluoren-4a-amine], the IC50 [1] was 167 nM, the “inhibition of hypoxia induced calcium influx (in words)” value [1] was “potent inhibitors” and the IC50 [2] was 27 nM. For the same compound, the “potency compared with TCP and MK-801 (in words)” value [2] was “potency comparable to both TCP and MK-801” and the “inhibition of [^3 H]TCP receptor binding (in words)” value [2] was “potent inhibitors”.
For `CNC12CCCCC1Cc1ccccc12` (centres unmarked) [Example 2, 1,2,3,4,9,9a-hexahydro-N-methyl-4aH-fluoren-4a-amine], the IC50 [3] was 304 nM, the “inhibition of glutamate stimulated influx of calcium (in words)” value (“inhibition … of calcium (in words)” below) [3] was “inhibit the glutamate stimulated influx of calcium” and the IC50 [1] was 5 nM. The “inhibition of hypoxia induced calcium influx (in words)” value [1] was “potent inhibitors”, the IC50 [2] was 15 nM and the “potency compared with TCP and MK-801 (in words)” value [2] was “potency comparable to both TCP and MK-801”. For the same compound, the “inhibition of [^3 H]TCP receptor binding (in words)” value [2] was “potent inhibitors”.
With `COCCCNC12CCCCC1Cc1ccccc12` (centres unmarked) [Example 8, 1,2,3,4,9,9a-hexahydro-N-(3-methoxypropyl)-4aH-fluoren-4a-amine] the IC50 [3] was 1900 nM, the “inhibition … of calcium (in words)” value [3] was “inhibit the glutamate stimulated influx of calcium” and the IC50 [1] was 43 nM. For the same compound, the “inhibition of hypoxia induced calcium influx (in words)” value [1] was “potent inhibitors”, the IC50 [2] was 102 nM and the “inhibition of [^3 H]TCP receptor binding (in words)” value [2] was “potent inhibitors”.
For `CNC12CC(C)CCC1Cc1ccccc12` (centres unmarked) [Example 12, 1,2,3,4,9,9a-hexahydro-3-methyl-N-methyl-(4aH)-fluoren-4a-amine], the IC50 [3] was 1900 nM, the “inhibition … of calcium (in words)” value [3] was “inhibit the glutamate stimulated influx of calcium” and the IC50 [1] was 95 nM. For the same compound, the “inhibition of hypoxia induced calcium influx (in words)” value [1] was “potent inhibitors”, the IC50 [2] was 95 nM and the “inhibition of [^3 H]TCP receptor binding (in words)” value [2] was “potent inhibitors”.
With `CCNC12CCCCC1Oc1ccccc12` (centres unmarked) [Example 27, N-ethyl-6,7,8,9-tetrahydro-9a(5aH)-dibenzofuranamine] the IC50 [3] was 1800 nM, the “inhibition … of calcium (in words)” value [3] was “inhibit the glutamate stimulated influx of calcium” and the IC50 [1] was 124 nM. The “inhibition of hypoxia induced calcium influx (in words)” value [1] was “potent inhibitors”, the IC50 [2] was 141 nM and the “inhibition of [^3 H]TCP receptor binding (in words)” value [2] was “potent inhibitors”.
For `CNC12CCCCC1Sc1ccccc12` (centres unmarked) [Example 30, 6,7,8,9-tetrahydro-N-methyl-9a(5aH)-dibenzothiophenamine], the IC50 [3] was 260 nM, the “inhibition … of calcium (in words)” value [3] was “inhibit the glutamate stimulated influx of calcium” and the IC50 [1] was 200 nM. For the same compound, the “inhibition of hypoxia induced calcium influx (in words)” value [1] was “potent inhibitors”, the IC50 [2] was 10 nM and the “potency compared with TCP and MK-801 (in words)” value [2] was “potency comparable to both TCP and MK-801”. For the same compound, the “inhibition of [^3 H]TCP receptor binding (in words)” value [2] was “potent inhibitors”.
With `C[C@]12N[C@H](Cc3ccccc31)c1ccccc12` [MK-801, reference compound] the IC50 [3] was 51 nM and the IC50 [1] was 34 nM.
`c1ccc(C2(N3CCCCC3)CCCCC2)cc1` [PCP, phencyclidene, reference compound] gave an IC50 [3] of 160 nM, an IC50 [1] of 45 nM and an IC50 [2] of 40 nM.
For `CNC1(c2ccccc2Cl)CCCCC1=O` (centres unmarked) [ketamine, reference compound], the IC50 [3] was 5500 nM and the IC50 [1] was 1900 nM.
